“And” between values parts separate entries of the source, which are not always exact repeats. Identical values can stand only once. Like-named read-outs stand apart in the source and are kept apart here.
Key:
P. falciparum Dd2-2D4 = assay: P. falciparum asexual blood stage (ABS) growth assay, SYBR Green, 72 h, wild-type parasites; format: cell-based, Plasmodium falciparum; conditions: Log[inhibitor] (M) -7.408
Method: Parasites were maintained under standard culture conditions as described previously[56],[57]. […] The P. falciparum Dd2 cell lines used in this study (Dd2-2D4, halofuginone-induced, and HFGR-I) have previously undergone whole genome sequencing in our labs.
This assay was performed as previously described[8]. In short, P. falciparum erythrocytic-stage parasites at 1% parasitemia and 1% hematocrit in RPMI + 0.5% Albumax were seeded at 40 μL/well in 384-well plates with test compounds in triplicate, dose-response format with 10 μM dihydroartemisinin as a kill-control and blank (no compound) wells as a growth-control. […] After 72 h, growth was quantified by measuring fluorescence (Molecular Devices SpectraMax iD5) following SYBR Green 1 staining. Data were analyzed in Excel and plotted in PRISM (V. 8.4.3–9.1.0, GraphPad).

PfcProRS = target: T1, PfcProRS (Plasmodium falciparum, UniProt Q8I5R7); format: binding; conditions: for dose-response signal (normalized), SI Fig 8: single replicates
T1 construct: made in house; host or cells: E. coli SoluBL-21
T1 sequence (Q8I5R7 249-746): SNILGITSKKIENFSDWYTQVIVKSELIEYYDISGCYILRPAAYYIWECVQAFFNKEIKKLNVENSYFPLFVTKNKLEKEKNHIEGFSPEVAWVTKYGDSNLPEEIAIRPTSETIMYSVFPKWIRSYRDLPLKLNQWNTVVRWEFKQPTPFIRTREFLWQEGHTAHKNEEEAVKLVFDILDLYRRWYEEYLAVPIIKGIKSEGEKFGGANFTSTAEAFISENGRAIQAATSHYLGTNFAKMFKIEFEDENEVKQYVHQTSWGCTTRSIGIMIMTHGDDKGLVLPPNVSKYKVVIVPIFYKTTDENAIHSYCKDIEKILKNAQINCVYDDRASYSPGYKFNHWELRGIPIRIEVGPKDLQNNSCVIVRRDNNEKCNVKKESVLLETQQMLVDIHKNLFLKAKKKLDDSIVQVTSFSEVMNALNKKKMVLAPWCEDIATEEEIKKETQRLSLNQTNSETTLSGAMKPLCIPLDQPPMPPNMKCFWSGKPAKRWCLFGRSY

HsProRS = HsProRS (Homo sapiens, UniProt P07814); assay: TR-FRET ligand displacement assay with tracer MAT379 (CoraFluor-1-Halo and anti-His6 antibody formats); format: binding; design: made in house; host or cells: E. coli SoluBL-21; conditions: for TR-FRET dose-response, normalized signal (SI Fig 11): individual replicates
Sequence of HsProRS (P07814 996-1512): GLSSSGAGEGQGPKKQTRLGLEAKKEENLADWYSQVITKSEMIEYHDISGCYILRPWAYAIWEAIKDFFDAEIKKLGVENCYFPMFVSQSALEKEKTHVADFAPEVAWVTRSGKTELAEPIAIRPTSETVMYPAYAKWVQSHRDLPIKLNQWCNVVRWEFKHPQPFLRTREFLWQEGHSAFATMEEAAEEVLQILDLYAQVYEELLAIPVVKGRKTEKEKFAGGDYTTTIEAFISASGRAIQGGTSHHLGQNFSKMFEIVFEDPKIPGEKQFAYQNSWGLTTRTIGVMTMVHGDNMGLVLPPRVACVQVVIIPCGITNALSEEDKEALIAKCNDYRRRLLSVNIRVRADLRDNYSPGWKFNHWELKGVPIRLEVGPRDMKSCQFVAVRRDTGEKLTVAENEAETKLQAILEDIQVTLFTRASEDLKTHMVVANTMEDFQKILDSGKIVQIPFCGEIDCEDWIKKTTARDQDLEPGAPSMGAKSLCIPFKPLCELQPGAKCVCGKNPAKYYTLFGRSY

O=C(NC1Cc2ccccc2C1)c1nccnc1NC(=O)N1CCNCC1 [compound 14]
dose-response value per replicate (SI Fig 2g) (P. falciparum Dd2-2D4): 106 | dose-response signal (normalized), SI Fig 8 (PfcProRS; Log[inhibitor] (M) -5.000): 3.52E-01 and 3.02E-01 and 4.80E-01 | dose-response signal (normalized), SI Fig 8 (PfcProRS; Log[inhibitor] (M) -5.301): 6.97E-01 and 5.97E-01 and 7.91E-01 | dose-response signal (normalized), SI Fig 8 (PfcProRS; Log[inhibitor] (M) -5.601): 7.61E-01 and 7.19E-01 and 8.51E-01 | dose-response signal (normalized), SI Fig 8 (PfcProRS; Log[inhibitor] (M) -5.904): 9.39E-01 and 1.01E+00 and 9.69E-01 | dose-response signal (normalized), SI Fig 8 (PfcProRS; Log[inhibitor] (M) -6.208): 9.51E-01 and 9.80E-01 and 1.13E+00 | dose-response signal (normalized), SI Fig 8 (PfcProRS; Log[inhibitor] (M) -6.509): 1.06E+00 and 1.12E+00 and 9.92E-01 | dose-response signal (normalized), SI Fig 8 (PfcProRS; Log[inhibitor] (M) -6.796): 9.94E-01 and 1.03E+00 and 9.99E-01 | dose-response signal (normalized), SI Fig 8 (PfcProRS; Log[inhibitor] (M) -7.108): 1.00E+00 and 1.01E+00 and 1.05E+00 | dose-response signal (normalized), SI Fig 8 (PfcProRS; Log[inhibitor] (M) -7.409): 1.05E+00 and 9.56E-01 and 1.00E+00 | dose-response signal (normalized), SI Fig 8 (PfcProRS; Log[inhibitor] (M) -7.710): 1.05E+00 and 1.12E+00 and 1.08E+00 | dose-response signal (normalized), SI Fig 8 (PfcProRS; Log[inhibitor] (M) -8.000): 9.77E-01 and 1.04E+00 (2×) | dose-response signal (normalized), SI Fig 8 (PfcProRS; Log[inhibitor] (M) -8.301): 1.09E+00 and 1.08E+00 and 1.13E+00 | dose-response signal (normalized), SI Fig 8 (PfcProRS; Log[inhibitor] (M) -8.602): 9.19E-01 and 1.01E+00 and 1.04E+00 | dose-response signal (normalized), SI Fig 8 (PfcProRS; Log[inhibitor] (M) -9.000): 9.80E-01 and 1.02E+00 and 1.08E+00 | dose-response signal (normalized), SI Fig 8 (PfcProRS; Log[inhibitor] (M) -9.301): 1.02E+00 and 1.01E+00 and 8.73E-01 | PfcProRS -- best Kd (PfcProRS; SI Fig 16a, values on -log scale): 5.788 | IC50 (HsProRS): > 10 µM | Kd (HsProRS; HsProRS - best Kd, SI Fig 16a, values on -log scale): 347 nM | normalized TR-FRET ligand displacement signal, dose-response replicates (SI Fig 6) (HsProRS; Log[inhibitor] (M) -5.000): 7.56E-01 and 7.38E-01 and 6.65E-01 | TR-FRET dose-response, normalized signal (SI Fig 11) (HsProRS; Log[inhibitor] (M) -5.000): 5.37E-01 and 5.66E-01 and 5.12E-01 | normalized TR-FRET ligand displacement signal, dose-response replicates (SI Fig 6) (HsProRS; Log[inhibitor] (M) -5.301): 8.27E-01 and 7.77E-01 and 8.29E-01 | TR-FRET dose-response, normalized signal (SI Fig 11) (HsProRS; Log[inhibitor] (M) -5.301): 7.06E-01 and 7.34E-01 and 7.02E-01 | normalized TR-FRET ligand displacement signal, dose-response replicates (SI Fig 6) (HsProRS; Log[inhibitor] (M) -5.601): 9.28E-01 and 8.85E-01 and 8.45E-01 | TR-FRET dose-response, normalized signal (SI Fig 11) (HsProRS; Log[inhibitor] (M) -5.601): 8.30E-01 and 8.51E-01 and 8.70E-01 | normalized TR-FRET ligand displacement signal, dose-response replicates (SI Fig 6) (HsProRS; Log[inhibitor] (M) -5.904): 9.66E-01 and 1.02E+00 and 8.66E-01 | TR-FRET dose-response, normalized signal (SI Fig 11) (HsProRS; Log[inhibitor] (M) -5.904): 9.48E-01 and 8.82E-01 and 9.17E-01 | normalized TR-FRET ligand displacement signal, dose-response replicates (SI Fig 6) (HsProRS; Log[inhibitor] (M) -6.208): 9.85E-01 and 9.86E-01 and 1.00E+00 | TR-FRET dose-response, normalized signal (SI Fig 11) (HsProRS; Log[inhibitor] (M) -6.208): 9.32E-01 and 8.78E-01 and 9.58E-01 | normalized TR-FRET ligand displacement signal, dose-response replicates (SI Fig 6) (HsProRS; Log[inhibitor] (M) -6.509): 1.15E+00 and 1.03E+00 and 9.65E-01 | TR-FRET dose-response, normalized signal (SI Fig 11) (HsProRS; Log[inhibitor] (M) -6.509): 9.64E-01 and 9.63E-01 and 9.66E-01 | normalized TR-FRET ligand displacement signal, dose-response replicates (SI Fig 6) (HsProRS; Log[inhibitor] (M) -6.796): 1.11E+00 and 1.13E+00 and 1.12E+00 | TR-FRET dose-response, normalized signal (SI Fig 11) (HsProRS; Log[inhibitor] (M) -6.796): 1.02E+00 and 9.73E-01 and 9.90E-01 | normalized TR-FRET ligand displacement signal, dose-response replicates (SI Fig 6) (HsProRS; Log[inhibitor] (M) -7.108): 1.08E+00 and 1.05E+00 and 9.83E-01 | TR-FRET dose-response, normalized signal (SI Fig 11) (HsProRS; Log[inhibitor] (M) -7.108): 9.95E-01 and 1.03E+00 and 9.34E-01 | normalized TR-FRET ligand displacement signal, dose-response replicates (SI Fig 6) (HsProRS; Log[inhibitor] (M) -7.409): 9.81E-01 and 8.66E-01 and 9.44E-01 | TR-FRET dose-response, normalized signal (SI Fig 11) (HsProRS; Log[inhibitor] (M) -7.409): 9.68E-01 and 9.66E-01 and 9.87E-01 | normalized TR-FRET ligand displacement signal, dose-response replicates (SI Fig 6) (HsProRS; Log[inhibitor] (M) -7.710): 1.08E+00 and 1.01E+00 (2×) | TR-FRET dose-response, normalized signal (SI Fig 11) (HsProRS; Log[inhibitor] (M) -7.710): 1.03E+00 (2×) and 9.36E-01 | normalized TR-FRET ligand displacement signal, dose-response replicates (SI Fig 6) (HsProRS; Log[inhibitor] (M) -8.000): 9.08E-01 and 9.09E-01 and 9.75E-01 | TR-FRET dose-response, normalized signal (SI Fig 11) (HsProRS; Log[inhibitor] (M) -8.000): 1.02E+00 and 1.03E+00 and 9.52E-01 | normalized TR-FRET ligand displacement signal, dose-response replicates (SI Fig 6) (HsProRS; Log[inhibitor] (M) -8.301): 9.22E-01 and 9.86E-01 and 9.29E-01 | TR-FRET dose-response, normalized signal (SI Fig 11) (HsProRS; Log[inhibitor] (M) -8.301): 1.02E+00 and 9.93E-01 and 9.56E-01 | normalized TR-FRET ligand displacement signal, dose-response replicates (SI Fig 6) (HsProRS; Log[inhibitor] (M) -8.602): 9.82E-01 and 1.05E+00 and 8.99E-01 | TR-FRET dose-response, normalized signal (SI Fig 11) (HsProRS; Log[inhibitor] (M) -8.602): 9.98E-01 and 9.57E-01 and 9.65E-01 | normalized TR-FRET ligand displacement signal, dose-response replicates (SI Fig 6) (HsProRS; Log[inhibitor] (M) -9.000): 1.07E+00 and 1.04E+00 and 1.00E+00 | TR-FRET dose-response, normalized signal (SI Fig 11) (HsProRS; Log[inhibitor] (M) -9.000): 1.00E+00 and 9.49E-01 and 9.70E-01 | normalized TR-FRET ligand displacement signal, dose-response replicates (SI Fig 6) (HsProRS; Log[inhibitor] (M) -9.301): 9.76E-01 and 9.94E-01 and 1.01E+00 | TR-FRET dose-response, normalized signal (SI Fig 11) (HsProRS; Log[inhibitor] (M) -9.301): 9.76E-01 and 1.00E+00 and 9.87E-01 | HsProRS % signal at 10 μM (HsProRS; no added proline/ATP (-), 10 μM): 53.8%
